Experimental data published in paper PMC11843613, “Further Optimization of the mGlu1 PAM VU6024578/BI02982816: Discovery and Characterization of VU6033685” (ACS Chemical Neuroscience, 2025).
pEC50: −log10 of the molar value. Read-outs that look alike come from different tables or passages of the source.

Experiments:
mouse mGlu1 = mouse mGlu1 (Mus musculus, UniProt P97772); assay: mGlu1 PAM functional assay (mouse); format: cell-based
dog mGlu1 = dog mGlu1 (Canis lupus familiaris, UniProt A0A8I3NTE8); assay: mGlu1 PAM functional assay (dog); format: cell-based
Chain of dog mGlu1 (A0A8I3NTE8 30-1195): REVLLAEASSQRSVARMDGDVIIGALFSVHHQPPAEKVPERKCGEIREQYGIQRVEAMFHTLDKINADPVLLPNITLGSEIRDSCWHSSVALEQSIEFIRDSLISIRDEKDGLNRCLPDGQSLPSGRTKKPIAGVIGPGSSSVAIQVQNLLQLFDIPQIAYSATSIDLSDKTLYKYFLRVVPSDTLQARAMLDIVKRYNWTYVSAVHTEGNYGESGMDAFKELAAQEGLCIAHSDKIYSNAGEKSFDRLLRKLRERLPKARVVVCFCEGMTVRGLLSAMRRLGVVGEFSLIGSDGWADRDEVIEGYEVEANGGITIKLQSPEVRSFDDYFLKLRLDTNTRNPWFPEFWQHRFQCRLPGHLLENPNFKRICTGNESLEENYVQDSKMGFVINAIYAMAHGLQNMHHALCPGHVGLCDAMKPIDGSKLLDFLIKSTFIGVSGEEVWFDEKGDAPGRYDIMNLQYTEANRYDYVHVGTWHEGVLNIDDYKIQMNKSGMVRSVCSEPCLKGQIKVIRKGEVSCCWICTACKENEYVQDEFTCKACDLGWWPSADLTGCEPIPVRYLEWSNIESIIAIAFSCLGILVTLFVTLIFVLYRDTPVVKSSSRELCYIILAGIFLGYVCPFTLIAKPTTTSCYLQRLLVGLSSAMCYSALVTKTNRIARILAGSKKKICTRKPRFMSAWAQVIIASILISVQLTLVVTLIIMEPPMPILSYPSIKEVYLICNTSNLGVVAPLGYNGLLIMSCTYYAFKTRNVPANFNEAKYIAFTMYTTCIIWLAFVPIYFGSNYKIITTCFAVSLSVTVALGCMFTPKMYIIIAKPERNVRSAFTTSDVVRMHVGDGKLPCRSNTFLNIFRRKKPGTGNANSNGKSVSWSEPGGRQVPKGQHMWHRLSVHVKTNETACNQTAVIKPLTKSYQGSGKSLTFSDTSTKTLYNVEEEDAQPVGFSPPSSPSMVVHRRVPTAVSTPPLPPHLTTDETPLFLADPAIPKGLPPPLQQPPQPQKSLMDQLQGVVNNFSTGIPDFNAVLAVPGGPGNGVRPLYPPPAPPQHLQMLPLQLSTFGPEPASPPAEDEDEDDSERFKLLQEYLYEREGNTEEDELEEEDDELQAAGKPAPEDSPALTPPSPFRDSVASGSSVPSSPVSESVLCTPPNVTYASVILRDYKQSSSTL

h and r mGlu2-4,6-8 = assay: mGlu subtype selectivity; format: cell-based, human, rat; conditions: Table 1
[1] = Predicted hepatic clearance (c); format: in vitro ADME, c (presumably cynomolgus)
Description: at half log concentrations in DMSO were further diluted in assay buffer. The compounds or DMSO vehicle were added to cells and incubated for 2.5 min and an EC20 concentration of glutamate was added and incubated for 1 min. An ECmax concentration of glutamate was also added to cells that were incubated with DMSO vehicle to accurately calculate the EC20 calcium response. Data were normalized by subtracting the basal florescent peak before EC20 agonist addition from the maximal peak elicited by EC20 agonist and PAMs. Using GraphPad Prism 5.0, the concentration response curves were generated and the potencies of the mGlu1 PAMs were determined.
Plasma protein binding: The protein binding of each compound was determined in plasma via equilibrium dialysis employing RED Plates (ThermoFisher Scientific, Rochester, NY). Plasma was added to the 96 well plate containing test compound and mixed thoroughly for a final concentration of 5 µM. […]
Each compound was assayed in triplicate within the same 96-well plate. Fraction unbound was determined using the following equation […]
After a 5 min preincubation, the reaction was initiated by addition of NADPH (1 mM). […] The in vitro half-life (T 1/2, min, Eq. 1), intrinsic clearance (CLint, mL/min/kg, Eq. 2) and subsequent predicted hepatic clearance (CLhep, mL/min/kg, Eq. 3) was determined […]

[2] = Three-day dose escalation toxicology study in mice; format: in vivo, mouse; conditions: for AUC at 3 day: in vivo
[3] = Sprague-Dawley, in vivo

Chain of mouse mGlu1 (P97772 19-1199 limits assumed): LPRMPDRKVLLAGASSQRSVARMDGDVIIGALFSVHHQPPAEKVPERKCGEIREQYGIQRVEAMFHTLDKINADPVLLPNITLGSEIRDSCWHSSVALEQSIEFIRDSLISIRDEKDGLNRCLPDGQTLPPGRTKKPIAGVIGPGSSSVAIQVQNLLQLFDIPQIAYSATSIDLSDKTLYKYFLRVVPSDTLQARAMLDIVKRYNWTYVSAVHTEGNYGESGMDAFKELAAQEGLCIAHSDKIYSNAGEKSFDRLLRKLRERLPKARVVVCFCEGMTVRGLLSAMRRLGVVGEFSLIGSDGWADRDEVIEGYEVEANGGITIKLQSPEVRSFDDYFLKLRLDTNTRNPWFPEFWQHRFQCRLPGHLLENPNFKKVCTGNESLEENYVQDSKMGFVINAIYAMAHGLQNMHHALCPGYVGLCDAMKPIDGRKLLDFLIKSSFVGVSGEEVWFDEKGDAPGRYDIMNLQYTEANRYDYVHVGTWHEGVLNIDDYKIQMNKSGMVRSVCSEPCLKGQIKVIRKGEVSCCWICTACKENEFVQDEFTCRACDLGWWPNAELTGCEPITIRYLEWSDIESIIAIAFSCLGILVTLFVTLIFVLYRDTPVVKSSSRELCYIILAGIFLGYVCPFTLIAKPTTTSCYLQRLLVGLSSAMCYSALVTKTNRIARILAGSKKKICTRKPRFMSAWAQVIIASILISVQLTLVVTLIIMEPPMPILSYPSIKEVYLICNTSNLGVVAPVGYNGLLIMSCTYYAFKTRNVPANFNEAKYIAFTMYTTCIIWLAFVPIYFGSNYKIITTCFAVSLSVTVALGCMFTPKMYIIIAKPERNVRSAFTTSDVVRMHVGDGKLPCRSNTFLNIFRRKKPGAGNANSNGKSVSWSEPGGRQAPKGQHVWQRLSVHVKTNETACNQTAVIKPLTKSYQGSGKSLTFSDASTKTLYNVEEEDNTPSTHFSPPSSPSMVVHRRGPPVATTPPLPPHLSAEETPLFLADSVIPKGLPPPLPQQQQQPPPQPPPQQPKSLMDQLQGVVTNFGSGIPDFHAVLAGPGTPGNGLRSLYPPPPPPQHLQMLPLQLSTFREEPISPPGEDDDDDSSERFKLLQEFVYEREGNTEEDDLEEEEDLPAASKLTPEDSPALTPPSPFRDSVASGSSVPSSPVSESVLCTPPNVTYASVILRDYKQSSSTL

For `Cc1nc(C2CC2)ccc1CNC(=O)c1cc(-n2cccn2)ccc1Cl` [compound 8], the pEC50 (mouse mGlu1) was 7.28, the “mouse mGlu1 Glu Max” value (mouse mGlu1) was 102% and the pEC50 (dog mGlu1) was 7.03. The Emax (dog mGlu1; read-out: dog mGlu1 Glu Max) was 79%, the pEC50 (h and r mGlu2-4,6-8) was less than 5.00 and the “Predicted CLhep (c)” value [1] was 33.2 mL/min/kg. For the same compound, the AUC at 3 day ([2]; mouse, three-day, 50 mg/kg, read-out: AUCss at 50 mg/kg) was 5.5 µM·h, the AUC at 3 day ([2]; mouse, three-day, 200 mg/kg, read-out: AUCss at 200 mg/kg) was 69.9 µM·h and the AUC at 3 day ([2]; mouse, three-day, high-dose group (printed 500 mg/kg), read-out: AUCss in high-dose group) was 208 µM·h. The “maximum tolerated dose (MTD)” value ([2]; mouse three-day study) was “not reached”, the “findings at 50 mg/kg” value ([2]; mouse, three-day, 50 mg/kg) was “no test-item-related findings” and the “findings at 200 mg/kg” value ([2]; mouse, three-day, 200 mg/kg) was “some of the mice showed signs of weight loss, decreased motor activity, and swaying gait”. For the same compound, the “findings in high-dose group” value ([2]; mouse, three-day, high-dose group (printed 500 mg/kg)) was “several mice displayed weight loss, decreased motor activity, and swaying gait” and the “free brain concentration (fold rat EC50) that was well tolerated” value [3] was “up to 5.3 fold”.
